{
  "source": "patent US20230159931A1",
  "about": "“TARGETING THE PALMOTYLATION/DEPALMOTYLATION CYCLE TO TREAT INFLAMMATORY DISEASES” (CORNELL UNIVERSITY, priority 2020, published 2023)",
  "key": {"[1]": {"test": "Tolerability of ML349 in mice", "type": "in vivo", "settings": "50 mg kg^−1, mice", "text": "The inventors tested whether the pharmacological inhibition of APT2 with ML349 could reduce dextran sulfate sodium (DSS)-induced colitis in mice, an experimental model for IBD."}, "[2]": {"tested_on": "TH17 cell differentiation", "test": "TH17 cell differentiation of mouse splenocytes by flow cytometry (CD4- and IL-17-positive cells)", "type": "cell-based", "settings": "cytokine cocktail and different concentrations of ML349 for 4 days", "procedure": "FIGS. 3A-3E. The STAT3 palmitoylation-depalmitoylation cycle promotes TH17 cell differentiation. (A) DHHC7 promotes phosphorylation of wild-type STAT3, but not of the C108S mutant, in mouse splenocytes. Left, STAT3 and p-STAT3 blots; right, quantification of the relative p-STAT3 levels. (B) TH17 cell differentiation was quantified in the splenocyte samples in A by flow cytometry. […] Mouse splenocytes were treated with a cytokine cocktail (3 ng ml^−1 TGF-β, 40 ng ml^−1 IL-6, 30 ng ml^−1 IL-23, 20 ng ml^−1 TNF and 10 ng ml^−1 IL-1β) and different concentrations of ML349 for 4 days, then collected and analysed by flow cytometry to detect CD4- and IL-17-positive cells. (D) DHHC7 knockout in splenocytes inhibits TH17 cell differentiation. Wild-type and DHHC7-knockout mouse splenocytes were treated with a cytokine cocktail for 4 days to initiate differentiation, then the cells were collected and analyse by flow cytometry to detect CD4- and IL-17-positive cells. (E) Left, STAT3 and p-STAT3 blots of wild-type and DHHC7-knockout splenocytes. Right, quantification of the relative p-STAT3 levels. Data are mean±s.e.m. **P<0.01.\nSplenocytes were isolated from mice by classic methods. […]\nFor FACS analysis, flow cytometry was performed using 1×10^6 cells per sample. […] The cells were detected by Attune Flow Cytometer (Thermo Fisher) and analysed with FCS Express 6 software (De Novo Software)."}},
  "note": "“Also recorded” adds a separate entry of the source.",
  "data": [
    {"molecule": "COc1ccc(N2CCN(C(=O)c3cc4c(s3)-c3ccccc3S(=O)(=O)C4)CC2)cc1", "note": "[ML349]", "values": [
      {"measurement": "tolerability", "setting": "[1]", "result": "well tolerated"},
      {"measurement": "differentiation of TH17 cells", "setting": "[2]", "result": "significantly decreased; also recorded: decreases TH17 cell differentiation in a dose-dependent manner"}
    ]}
  ]
}
